Converted amounts (≈) assume the structure as drawn.
Assays:
Dactylis glomerata [1] = assay: Herbicidal activity against Dactylis glomerata at 75 g a.i./ha measured after 14 days relative to control; format: functional
Trifolium repens [2] = assay: Herbicidal activity against Trifolium repens at 75 g a.i./ha measured after 14 days relative to control; format: functional
Echinochloa crus-galli [3] = assay: Herbicidal activity against Echinochloa crus-galli (barnyard grass) measured after 14 days relative to control; format: functional, organism-based; conditions: for EC50: 336 h
Trifolium repens [4] = assay: Herbicidal activity against Trifolium repens measured after 14 days relative to control; format: functional, organism-based; conditions: for EC50: 336 h
Cyperus iria [5] = assay: Herbicidal activity against Cyperus iria at 75 g a.i./ha measured after 14 days relative to control; format: functional
Dactylis glomerata [6] = assay: Herbicidal activity against Dactylis glomerata measured after 14 days relative to control; format: functional, organism-based; conditions: for EC50: 336 h
Echinochloa crus-galli [7] = assay: Herbicidal activity against Echinochloa crus-galli (barnyard grass) at 75 g a.i./ha measured after 14 days relative to control; format: functional
Cyperus iria [8] = assay: Herbicidal activity against Cyperus iria measured after 14 days relative to control; format: functional, organism-based; conditions: for EC50: 336 h
Dactylis glomerata [9] = assay: Herbicidal activity against Dactylis glomerata at 15 g a.i./ha measured after 14 days relative to control; format: functional
Echinochloa crus-galli [10] = assay: Herbicidal activity against Echinochloa crus-galli (barnyard grass) at 15 g a.i./ha measured after 14 days relative to control; format: functional
Trifolium repens [11] = assay: Herbicidal activity against Trifolium repens at 15 g a.i./ha measured after 14 days relative to control; format: functional
Cyperus iria [12] = assay: Herbicidal activity against Cyperus iria at 15 g a.i./ha measured after 14 days relative to control; format: functional

| Structure (SMILES) | Activity (Dactylis glomerata [1]) [%] | Activity (Trifolium repens [2]) [%] | Activity (Echinochloa crus-galli [3]) | EC50 (Echinochloa crus-galli [3]) [µg/mL] | Activity (Trifolium repens [4]) | EC50 (Trifolium repens [4]) [µg/mL] | Activity (Cyperus iria [5]) [%] | Activity (Dactylis glomerata [6]) | EC50 (Dactylis glomerata [6]) [µg/mL] | Activity (Echinochloa crus-galli [7]) [%] | Activity (Cyperus iria [8]) | EC50 (Cyperus iria [8]) [µg/mL] | Activity (Dactylis glomerata [9]) [%] | Activity (Echinochloa crus-galli [10]) [%] | Activity (Trifolium repens [11]) [%] | Activity (Cyperus iria [12]) [%] |
| --- | --- | --- | --- | --- | --- | --- | --- | --- | --- | --- | --- | --- | --- | --- | --- | --- |
| N#Cc1c(SCc2ccccc2)nn(-c2ccccc2)c1NCCCN=C=S | 79.26 | 75.57 | Dose-dependent effect | 64.3 (≈ 159 µM) | Dose-dependent effect | 67.7 (≈ 167 µM) | 86.53 | Dose-dependent effect | 62.4 (≈ 154 µM) | 79.39 | Dose-dependent effect | 65.8 (≈ 162 µM) | – | – | – | – |
| CCOC(=O)c1c(SCc2ccccc2)nn(-c2ccccc2)c1NCCCN=C=S | 64.53 | 65.78 | – | – | – | – | 68.59 | – | – | 65.32 | – | – | – | – | – | – |
| CCOC(=O)c1c(SC)nn(-c2ccccc2)c1NCCCN=C=S | 59.08 | 60.68 | – | – | – | – | 60.23 | – | – | 58.93 | – | – | – | – | – | – |
| CSc1nn(C)c(NCCCN=C=S)c1C#N | 74.33 | 73.33 | Dose-dependent effect | 65.3 (≈ 244 µM) | Dose-dependent effect | 67.4 (≈ 252 µM) | 70.23 | Dose-dependent effect | 59.4 (≈ 222 µM) | 78.69 | Dose-dependent effect | 64.9 (≈ 243 µM) | – | – | – | – |
| CSc1nn(-c2ccccc2)c(NCCCN=C=S)c1C#N | 55.62 | 56.46 | – | – | – | – | 57.69 | – | – | 54.62 | – | – | – | – | – | – |
| Cn1nc(SCc2ccccc2)c(C#N)c1NCCCN=C=S | 31.25 | 34.48 | – | – | – | – | 42.56 | – | – | 44.62 | – | – | – | – | – | – |
| C=CCN=C=S [ALLYL ISOTHIOCYANATE] | 40.12 | 13.33 | – | – | – | – | 32.59 | – | – | 25.86 | – | – | – | – | – | – |
| CCOC(=O)c1ccccc1S(=O)(=O)NC(=O)Nc1nc(Cl)cc(OC)n1 [CHLORIMURON ETHYL] | – | – | – | 10.7 (≈ 25.7 µM) | – | 9.98 (≈ 24.1 µM) | – | – | 15.2 (≈ 36.7 µM) | – | – | 12.9 (≈ 31.1 µM) | 78.25 | 98.32 | 95.69 | 92.23 |
| CCOC(=O)c1c(SC)nn(C)c1NCCCN=C=S | 56.25 | 62.39 | – | – | – | – | 58.96 | – | – | 52.32 | – | – | – | – | – | – |
| CCOC(=O)c1c(SCc2ccccc2)nn(C)c1NCCCN=C=S | 46.53 | 45.12 | – | – | – | – | 55.36 | – | – | 63.32 | – | – | – | – | – | – |

— ChEMBL document CHEMBL3046919, “Synthesis and herbicidal activity of substituted pyrazole isothiocyanates” (Molecules, 2012)
